The numbers were not newly measured in patent publication US20260024640A1, “SYSTEM AND METHOD I[…] COMPUTER FOR THE CONTROL OF […] THROUGH FUZZY CONTROL” (SmartTIVA Inc, priority 2022, published 2026), which cites them from elsewhere.

Where two headings read alike, the source gives them in different places.

The conditions of data set [1]: Marsh.
For data set [2] the following is noted: Schnider.
[3] abbreviates: General Model (LBM calculated by weight, age, gender).

As to `CC(C)c1cccc(C(C)C)c1O` [Propofol], in data set [1] (70 kg), the V1 was 15.9 L, the k21 is 0.055 min⁻¹, the k31 is 0.0033 min⁻¹ and the keo is 0.26 min⁻¹. In addition, in data set [1] (General Model), the V1 is 0.228 L/kg, the k21 was 0.055 min⁻¹, the k31 is 0.0033 min⁻¹ and the keo is 0.26 min⁻¹. For the same molecule, in data set [2] (70 kg, male, height: 170 cm), the V1 is on record as 4.27 L, the k13 is 0.196 min⁻¹, the k21 is 0.067 min⁻¹ and the keo is 0.456 min⁻¹. For the same molecule, in data set [2] (setting [3]), the V1 is recorded as 4.27 L, the k13 is 0.196 min⁻¹ and the keo was 0.456 min⁻¹.
